Reference: paper PMC7956476, “Quinoline Functionalized Schiff Base Silver (I) Complexes: Interactions with Biomolecules and In Vitro Cytotoxicity, Antioxidant and Antimicrobial Activities” (Molecules, 2021)
≈ marks a conversion by molar mass, not a printed value. Read-outs that look alike come from different tables or passages of the source.

Assays:
[1] = system: breast cancer cell line (MDA-MB231); assay: Cytotoxicity assay (CellTiter 96 AQueous One Solution, 72 h); type: cell-based, human
Description: (§1) In vitro cell viability with cultured cells is a method commonly used for cytotoxicity activities of potential anticancer compounds due to reduced cost speed, and potential for automation, and tests using human cells other than some in vivo animal tests. […] The cytotoxicity assay was conducted as per the standard method and as described by Abrahams et al. 2018 [111]. […] The plate was then incubated for 72 h at 37 °C and 5% CO2. To each well, 20 µL CellTiter 96 AQueous One Solution (Promega, Madison, WI, USA) was added and the plates were incubated for 4 h as previously described. Thereafter, absorbance was read at 490 nm on a multiplate reader (Molecular Devices, San Jose, CA, USA). […] The values recorded are averages of at least three separate experiments (n = 3).

[2] = system: cervical cancer cell line (HELA); assay: as above; type: cell-based, human
Description: as §1

[3] = system: neuronal cancer cell line (SHSY5Y); assay: as above; type: cell-based, human
Description: as §1

[4] = system: human embryonic kidney 293 (HEK293); assay: as above; type: cell-based; details: normal cell line, n = 3, read-out: EC50 ± Std Dev (µM) HEK293
Description: as §1

[5] = system: Staphylococcus aureus ATCC 700699 (methicillin-resistant); design: method as in doi:10.1016/j.poly.2019.06.038; details: standard; cited from earlier work
[6] = system: Salmonella typhimurium ATCC 14026; details: standard; S. typhi; cited from earlier work
[7] = system: Pseudomonas aeruginosa ATCC 27853; design: method as in doi:10.1016/j.poly.2019.06.038; details: standard; P. aeruginosa; cited from earlier work
[8] = system: Escherichia coli ATCC 25922; design: method as in doi:10.1016/j.poly.2019.06.038; details: standard; E. coli; cited from earlier work
[9] = system: Staphylococcus aureus ATCC 25923; design: method as in doi:10.1016/j.poly.2019.06.038; details: standard; S. aureus; cited from earlier work
CT-DNA-EB adduct = assay: Fluorescence competitive displacement of ethidium bromide from CT-DNA; type: binding, calf
How it was run: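 CT-DNA (15 µM) was pre-equilibrated 30 min with ethidium bromide (15 µM) in phosphate buffer pH 7.2, then titrated with complexes (0–20 µM) at 8-min intervals at room temperature. EB emission was recorded at 530–700 nm (excitation 525 nm, 25 °C), and quenching was analysed by Stern–Volmer to give Ksv and Kq (τo taken as 10^−8 s).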

[10] = Ferric reducing antioxidant power (FRAP) assay; type: biochemical; details: done in triplicate
[11] = system: Klebsiella pneumoniae ATCC 31488; assay: Minimum inhibitory concentration (MIC), spotting on Müeller–Hinton agar; type: cell-based; details: versus the standard (0.8 µg/mL)
[12] = system: Escherichia coli ATCC 25922; assay: as above; type: cell-based; details: Gram − Ve; E. coli; 37 °C, 18 h
[13] = system: Pseudomonas aeruginosa ATCC 27853; assay: as above; type: cell-based; details: Gram − Ve; P. aeruginosa; 37 °C, 18 h
[14] = system: Staphylococcus aureus ATCC 25923; assay: as above; type: cell-based; details: Gram + Ve; S. aureus; 37 °C, 18 h
[15] = system: Salmonella typhimurium ATCC 14026; assay: as above; type: cell-based; details: Gram − Ve; S. typhi; 37 °C, 18 h
[16] = system: Staphylococcus aureus ATCC 700699 (methicillin-resistant); assay: as above; type: cell-based; details: Gram + Ve; methicillin-resistant S. aureus; 37 °C, 18 h
calf thymus DNA (CT-DNA) = assay: CT-DNA electronic absorption titration (Wolfe–Shimer); type: binding; details: intrinsic binding constant, absorption titration, PBS pH 7.2
[17] = target: bovine serum albumin (BSA) (Bos taurus, UniProt P02769); assay: Albumin binding by absorption spectroscopy titration
bovine serum albumin (BSA), sequence (P02769 25-607): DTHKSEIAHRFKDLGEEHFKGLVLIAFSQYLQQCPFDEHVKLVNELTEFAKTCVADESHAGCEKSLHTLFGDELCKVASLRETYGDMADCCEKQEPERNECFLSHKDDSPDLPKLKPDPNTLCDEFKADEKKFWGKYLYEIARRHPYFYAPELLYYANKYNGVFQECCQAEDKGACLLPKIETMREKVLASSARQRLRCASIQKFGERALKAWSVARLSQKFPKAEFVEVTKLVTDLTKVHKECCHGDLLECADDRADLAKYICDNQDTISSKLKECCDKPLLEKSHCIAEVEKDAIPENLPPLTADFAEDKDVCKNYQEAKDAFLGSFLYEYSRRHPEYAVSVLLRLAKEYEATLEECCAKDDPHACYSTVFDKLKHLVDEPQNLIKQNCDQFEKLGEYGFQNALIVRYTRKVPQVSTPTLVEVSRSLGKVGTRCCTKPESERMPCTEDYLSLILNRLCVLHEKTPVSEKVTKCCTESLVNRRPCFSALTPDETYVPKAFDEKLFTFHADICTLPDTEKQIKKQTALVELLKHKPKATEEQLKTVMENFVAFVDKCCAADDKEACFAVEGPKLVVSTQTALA

N.N.[Cl][Pt][Cl] [Cisplatin, cisplatin, reference compound]
EC50 ([1]; 72 h, n = 3, read-out: EC50 ± Std Dev (µM) MDA-MB231): 22.7 ± 4.89 µM | Selectivity Index (SI) MDA-MB231 ([1]; EC50 in HEK293 over EC50 in MDA-MB231): 0.63 | EC50 ([2]; 72 h, n = 3, read-out: EC50 ± Std Dev (µM) HELA): > 50 µM | Selectivity Index (SI) HELA ([2]; EC50 in HEK293 over EC50 in HELA): 0.28 | EC50 ([3]; 72 h, n = 3, read-out: EC50 ± Std Dev (µM) SHSY5Y): 19.7 ± 3.77 µM | Selectivity Index (SI) SHSY5Y ([3]; EC50 in HEK293 over EC50 in SHSY5Y): 0.72 | EC50 [4]: 14.2 ± 3.8 µM

O=C(O)c1cn(C2CC2)c2cc(N3CCNCC3)c(F)cc2c1=O [Ciprofloxacin]
Minimum inhibitory concentration, MRSA [5]: 25 µg/mL (≈ 75.4 µM) | Minimum inhibitory concentration, ST [6]: 0.4 µg/mL (≈ 1.21 µM) | Minimum inhibitory concentration, PA [7]: 0.2 µg/mL (≈ 0.604 µM) | Minimum inhibitory concentration, EC [8]: 1.6 µg/mL (≈ 4.83 µM) | Minimum inhibitory concentration, SA [9]: 25 µg/mL (≈ 75.4 µM)

Clc1ccc(N=Cc2ccc3ccccc3n2)cc1.Clc1ccc(N=Cc2ccc3ccccc3n2)cc1.[Ag+].[O-][Cl+3]([O-])([O-])[O-] [Complex Q8, [Ag(L3)2]ClO4]
CT-DNA-EB-Complex Ksv (M^−1) × 10^4 (CT-DNA-EB adduct; Stern–Volmer quenching constant, EB displacement, 25 °C): 3.98 (M^−1) × 10^4 | CT-DNA-EB-Complex Kq (M^−1S^−1) × 10^12 (CT-DNA-EB adduct; bimolecular quenching constant, Ksv = Kqτo, τo 10^−8 s): 3.98 (M^−1S^−1) × 10^12 | CT-DNA-EB-Complex Kbin (M^−1) × 10^5 (CT-DNA-EB adduct; binding constant from double-logarithmic plot): 1.02 (M^−1) × 10^5 | Antioxidant (IC50 mg/mL) FRAP [10]: 3.27 ± 0.093 mg/mL | activity times higher than the standard against K. pneumoniae [11]: 64 times | Minimum inhibitory concentration, EC [12]: 1.6 µg/mL | Minimum inhibitory concentration, PA [13]: 0.1 µg/mL | Minimum inhibitory concentration, SA [14]: 50 µg/mL | Minimum inhibitory concentration, ST [15]: 25 µg/mL | Minimum inhibitory concentration, MRSA [16]: 25 µg/mL | CT-DNA-Cmp. Kb (M^−1) × 10^5 (calf thymus DNA (CT-DNA)): 30.0 (M^−1) × 10^5 | Protein-Complex Kb (M^−1) × 10^4 [17]: 9.48 (M^−1) × 10^4
